# Laboratory results: US20250262201A1, “COMPOUNDS AND METHODS USEFUL FOR STABILIZING PHENYLALANINE HYDROXYLASE MUTATIONS” (Agios Pharmaceuticals, Inc., priority 2022, published 2025)
# Target: T1, human PAH with the R408W mutation (Homo sapiens, UniProt P00439, R408W)
# T1 construct: expressed in transfected cells
# T1 sequence (P00439 1-452 R408W): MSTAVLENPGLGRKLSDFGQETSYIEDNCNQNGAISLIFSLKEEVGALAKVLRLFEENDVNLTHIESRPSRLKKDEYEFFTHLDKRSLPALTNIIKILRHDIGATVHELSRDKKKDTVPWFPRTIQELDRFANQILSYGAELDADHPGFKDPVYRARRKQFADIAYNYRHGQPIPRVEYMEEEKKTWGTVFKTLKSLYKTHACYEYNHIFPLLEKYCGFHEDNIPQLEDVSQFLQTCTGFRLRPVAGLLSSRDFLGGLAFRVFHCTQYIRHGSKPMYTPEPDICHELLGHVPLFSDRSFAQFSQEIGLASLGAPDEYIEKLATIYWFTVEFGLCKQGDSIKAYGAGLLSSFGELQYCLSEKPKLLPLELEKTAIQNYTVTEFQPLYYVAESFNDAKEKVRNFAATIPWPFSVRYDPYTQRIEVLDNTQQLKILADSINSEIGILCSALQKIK
# Experiment: Cell Based Phenylalanine Flux Assay
# Conditions: A375 cells expressing human R408W PAH; 24 hrs compound incubation; 13C-Tyrosine by LC-MS; average where tested multiple times; read-out: AC50
row,SMILES,AC50 [nM]
1,"O=C(c1nnc(-c2ccncc2)o1)N1CCc2[nH]cnc2[C@H]1c1ncc2ccccc2n1 [Example 179, (S)-(5-(pyridin-4-yl)-1,3,4-oxadiazol-2-yl)(4-(quinazolin-2-yl)-6,7-dihydro-1H-imidazo[4,5-c]pyridin-5(4H)-yl)methanone]",< 500
2,"O=C(c1nnc(-c2ccncc2)o1)N1CCc2[nH]cnc2[C@@H]1c1ncc2ccccc2n1 [Example 180, (R)-(5-(pyridin-4-yl)-1,3,4-oxadiazol-2-yl)(4-(quinazolin-2-yl)-6,7-dihydro-1H-imidazo[4,5-c]pyridin-5(4H)-yl)methanone]",> 5000
3,"COc1ccc(-c2nnc(C(=O)N3CCc4[nH]cnc4[C@H]3c3ncc4ccccc4n3)o2)nc1 [Example 181, (S)-(5-(5-methoxypyridin-2-yl)-1,3,4-oxadiazol-2-yl)(4-(quinazolin-2-yl)-6,7-dihydro-1H-imidazo[4,5-c]pyridin-5(4H)-yl)methanone]",< 500
4,"COc1ccc(-c2nnc(C(=O)N3CCc4[nH]cnc4[C@@H]3c3ncc4ccccc4n3)o2)nc1 [Example 182, (R)-(5-(5-methoxypyridin-2-yl)-1,3,4-oxadiazol-2-yl)(4-(quinazolin-2-yl)-6,7-dihydro-1H-imidazo[4,5-c]pyridin-5(4H)-yl)methanone]",1000 to 5000
5,"Cn1ncnc1C(=O)N1CCc2[nH]cnc2[C@@H]1c1ncc2ccccc2n1 [Example 183, (R)-(1-methyl-1H-1,2,4-triazol-5-yl)(4-(quinazolin-2-yl)-6,7-dihydro-1H-imidazo[4,5-c]pyridin-5(4H)-yl)methanone]",1000 to 5000
6,"Cn1ncnc1C(=O)N1CCc2[nH]cnc2[C@H]1c1ncc2ccccc2n1 [Example 184, (S)-(1-methyl-1H-1,2,4-triazol-5-yl)(4-(quinazolin-2-yl)-6,7-dihydro-1H-imidazo[4,5-c]pyridin-5(4H)-yl)methanone]",< 500
7,"O=C(c1nnc(-c2cnn(C(F)F)c2)o1)N1CCc2[nH]cnc2[C@H]1c1ncc2ccccc2n1 [Example 185, (S)-(5-(1-(difluoromethyl)-1H-pyrazol-4-yl)-1,3,4-oxadiazol-2-yl)(4-(quinazolin-2-yl)-6,7-dihydro-1H-imidazo[4,5-c]pyridin-5(4H)-yl)methanone]",< 500
8,"O=C(c1nnc(-c2cnn(C(F)F)c2)o1)N1CCc2[nH]cnc2[C@@H]1c1ncc2ccccc2n1 [Example 186, (R)-(5-(1-(difluoromethyl)-1H-pyrazol-4-yl)-1,3,4-oxadiazol-2-yl)(4-(quinazolin-2-yl)-6,7-dihydro-1H-imidazo[4,5-c]pyridin-5(4H)-yl)methanone]",> 5000
9,"O=C(c1nnc(-c2cnn(C3CCC3)c2)o1)N1CCc2[nH]cnc2[C@H]1c1ncc2ccccc2n1 [Example 187, (S)-(5-(1-cyclobutyl-1H-pyrazol-4-yl)-1,3,4-oxadiazol-2-yl)(4-(quinazolin-2-yl)-6,7-dihydro-1H-imidazo[4,5-c]pyridin-5(4H)-yl)methanone]",< 500
10,"O=C(c1nnc(-c2cnn(C3CCC3)c2)o1)N1CCc2[nH]cnc2[C@@H]1c1ncc2ccccc2n1 [Example 188, (R)-(5-(1-cyclobutyl-1H-pyrazol-4-yl)-1,3,4-oxadiazol-2-yl)(4-(quinazolin-2-yl)-6,7-dihydro-1H-imidazo[4,5-c]pyridin-5(4H)-yl)methanone]",1000 to 5000
11,"O=C(c1nnc(-c2ccn(C(F)F)n2)o1)N1CCc2[nH]cnc2[C@H]1c1ncc2ccccc2n1 [Example 189, (S)-(5-(1-(difluoromethyl)-1H-pyrazol-3-yl)-1,3,4-oxadiazol-2-yl)(4-(quinazolin-2-yl)-6,7-dihydro-1H-imidazo[4,5-c]pyridin-5(4H)-yl)methanone]",< 500
12,"O=C(c1nnc(-c2ccn(C(F)F)n2)o1)N1CCc2[nH]cnc2[C@@H]1c1ncc2ccccc2n1 [Example 190, (R)-(5-(1-(difluoromethyl)-1H-pyrazol-3-yl)-1,3,4-oxadiazol-2-yl)(4-(quinazolin-2-yl)-6,7-dihydro-1H-imidazo[4,5-c]pyridin-5(4H)-yl)methanone]",1000 to 5000
13,"O=C(c1nnc(-c2cnccn2)o1)N1CCc2[nH]cnc2[C@@H]1c1ncc2ccccc2n1 [Example 191, (R)-(5-(pyrazin-2-yl)-1,3,4-oxadiazol-2-yl)(4-(quinazolin-2-yl)-6,7-dihydro-1H-imidazo[4,5-c]pyridin-5(4H)-yl)methanone]",> 5000
14,"O=C(c1nnc(-c2cnccn2)o1)N1CCc2[nH]cnc2[C@H]1c1ncc2ccccc2n1 [Example 192, (S)-(5-(pyrazin-2-yl)-1,3,4-oxadiazol-2-yl)(4-(quinazolin-2-yl)-6,7-dihydro-1H-imidazo[4,5-c]pyridin-5(4H)-yl)methanone]",500 to 1000
15,"Cc1nc(-c2ccccn2)oc1C(=O)N1CCc2[nH]cnc2[C@H]1c1ncc2ccccc2n1 [Example 193, (S)-(4-methyl-2-(pyridin-2-yl)oxazol-5-yl)(4-(quinazolin-2-yl)-6,7-dihydro-1H-imidazo[4,5-c]pyridin-5(4H)-yl)methanone]",< 500
16,"Cc1nc(-c2ccccn2)oc1C(=O)N1CCc2[nH]cnc2[C@@H]1c1ncc2ccccc2n1 [Example 194, (R)-(4-methyl-2-(pyridin-2-yl)oxazol-5-yl)(4-(quinazolin-2-yl)-6,7-dihydro-1H-imidazo[4,5-c]pyridin-5(4H)-yl)methanone]",1000 to 5000
17,"O=C(c1nnc(-c2ccc(OC(F)(F)F)cn2)o1)N1CCc2[nH]cnc2[C@H]1c1ncc2ccccc2n1 [Example 195, (S)-(4-(quinazolin-2-yl)-6,7-dihydro-1H-imidazo[4,5-c]pyridin-5(4H)-yl)(5-(5-(trifluoromethoxy)pyridin-2-yl)-1,3,4-oxadiazol-2-yl)methanone]",< 500
18,"O=C(c1nnc(-c2ccc(OC(F)(F)F)cn2)o1)N1CCc2[nH]cnc2[C@@H]1c1ncc2ccccc2n1 [Example 196, (R)-(4-(quinazolin-2-yl)-6,7-dihydro-1H-imidazo[4,5-c]pyridin-5(4H)-yl)(5-(5-(trifluoromethoxy)pyridin-2-yl)-1,3,4-oxadiazol-2-yl)methanone]",> 5000
19,"Cn1cnc(-c2nnc(C(=O)N3CCc4[nH]cnc4[C@H]3c3ncc4ccccc4n3)o2)c1 [Example 197, (S)-(5-(1-methyl-1H-imidazol-4-yl)-1,3,4-oxadiazol-2-yl)(4-(quinazolin-2-yl)-6,7-dihydro-1H-imidazo[4,5-c]pyridin-5(4H)-yl)methanone]",500 to 1000
20,"Cc1nn(C)cc1-c1nnc(C(=O)N2CCc3[nH]cnc3[C@@H]2c2ncc3ccccc3n2)o1 [Example 199, (R)-(5-(1,3-dimethyl-1H-pyrazol-4-yl)-1,3,4-oxadiazol-2-yl)(4-(quinazolin-2-yl)-6,7-dihydro-1H-imidazo[4,5-c]pyridin-5(4H)-yl)methanone]",> 5000
21,"Cc1nn(C)cc1-c1nnc(C(=O)N2CCc3[nH]cnc3[C@H]2c2ncc3ccccc3n2)o1 [Example 200, (S)-(5-(1,3-dimethyl-1H-pyrazol-4-yl)-1,3,4-oxadiazol-2-yl)(4-(quinazolin-2-yl)-6,7-dihydro-1H-imidazo[4,5-c]pyridin-5(4H)-yl)methanone]",< 500
22,"CC(C)(C)c1nnc(C(=O)N2CCc3[nH]cnc3[C@H]2c2ncc3ccccc3n2)o1 [Example 201, (S)-(5-(tert-butyl)-1,3,4-oxadiazol-2-yl)(4-(quinazolin-2-yl)-6,7-dihydro-1H-imidazo[4,5-c]pyridin-5(4H)-yl)methanone]",< 500
